Key:
[1] = tested on: Petroselinum crispum cells; assay: Oxygen transfer rate (RAMOS) in suspension cells treated with substance and then with the elicitor Pep13; format: cell-based; conditions: 200 μM 72 hours after inoculation; for oxygen transfer rate in comparison to untreated cells and to cells only treated with Pep13 (specificity): 1 nM Pep13 96 hours after inoculation, FIG. 2
Procedure: (§1) 12.5 ml of a suspension of Petroselinum crispurn cells were inoculated in 250 ml shaking flasks containing 37.5 ml of modified Gamborg B5 medium and cultured at a temperature of 25° C. at a shaking frequency of 180 U/min and a shaking diameter of 5 cm in a RAMOS device (HiTec Zang, Herzogenrath). During the culture the oxygen partial pressure of the gas phase in the head space of the flask was measured and the oxygen transfer rate was calculated therefrom.
In yet another experiment, the cells were treated with 200 μM salicylic acid 72 hours after inoculation and with Pep13 96 hours after inoculation.
In parallel experiments, the cells were either treated with 200 μM salicylic acid, 200 μM 4-chlorsalicylic acid or with 200 μM 3-hydroxy benzoic acid 72 hours after inoculation and then in all experiments 1 nM Pep13 was added 96 hours after inoculation.

[2] = tested on: Petroselinum crispum cells; assay: Oxygen transfer rate (RAMOS) in suspension cells after treatment with a defense priming substance or elicitor alone; format: cell-based; conditions: 200 μM added 72 hours after inoculation; FIG. 1b
Excerpt: In the determination of the respiration activity with RAMOS, a measuring cycle is continuously repeated during fermentation. This measuring cycle comprises a measuring phase and a rinsing phase. During the rinsing phase, air is flushed through the measuring flask at a specific flow rate. At the beginning of the measuring phase, inlet and outlet valves of the measuring flask are closed. Respiration of the cells leads to a decrease in the oxygen partial pressure and to an increase in the carbon dioxide partial pressure in the gas headspace of the measuring flask. These partial pressures are monitored by an oxygen sensor and a differential pressure sensor. In addition, a carbon dioxide sensor may be used. Assuming linear changes in the measuring phase, a computer calculates the oxygen transfer rate and the carbon dioxide transfer rate according to the formulas provided above. […]
as §1, with “therefrom. […]” for “therefrom.”

Row | SMILES | oxygen transfer rate in comparison to untreated cells and to cells only treated with Pep13 (specificity) [1] | duration of the increase in oxygen transfer rate [2] | oxygen transfer rate in comparison to the untreated cells [2] | oxygen transfer rate compared with treatment with Pep13 alone ([1]; Pep13 96 hours after inoculation, FIG. 1d)
1 | O=C(O)c1cccc(O)c1 [3-hydroxy benzoic acid] | same increase in the oxygen transfer rate as the addition of Pep13 alone | – | – | –
2 | O=C(O)c1ccc(Cl)cc1O [4-chlorsalicylic acid] | increase in the oxygen transfer rate | – | – | –
3 | O=C(O)c1ccccc1O [salicylic acid] | increase in the oxygen transfer rate | about 48 hours | increase in the oxygen transfer rate | stronger increase in the oxygen transfer rate than the treatment with Pep13 alone

From patent US20170254801A1, “METHOD FOR IDENTIFYING SUBSTANCES WHICH PRIME A DEFENSE RESPONSE” (RHEINISCH-WESTFÄLISCHE TECHNISCHE HOCHSCHULE AACHEN (RWTH), priority 2014, published 2017)
